These are literature values, as cited in paper PMC8198792, “Prediction of Anticancer Peptides with High Efficacy and Low Toxicity by Hybrid Model Based on 3D Structure of Peptides” (International Journal of Molecular Sciences, 2021).

In data set [1] the test system is many types of cells, including non-cancer cells. The conditions noted are these: toxic peptides dataset TD2; class label 1 (toxic, positive set) or 0 (non-toxic AMP, negative set); ref SATPdb; cited from earlier work.
The subject of a further data set is cancer cell lines. On the set-up: method as in 6 sources, ref CancerPPD [45] and SATPdb ||| ref CancerPPD/SATPdb ||| ref CancerPPD, SATPdb, Swissprot (PDB) ||| ref CancerPPD/SATPdb/Swissprot(PDB) ||| ref CancerPPD / SATPdb ||| ... The conditions noted are these: 0 = non-ACP, cited from earlier work. An excerpt:
Supplement ijms-22-05630-s001.zip/ACPs(seguence).xlsx, sheet "D1" | column: Activity || Supplement ijms-22-05630-s001.zip/ACPs(seguence).xlsx, sheet "D2" | column: Activity || Supplement ijms-22-05630-s001.zip/ACPs(seguence).xlsx, sheet "D3" | column: Activity || (+ 2 further places)

The next data set relates to erythrocytes. The conditions noted are these: cited from earlier work. An excerpt:
Supplement ijms-22-05630-s001.zip/Hemloytic Peptides(seguence).xlsx, sheet "HD1" | column: Activity || Supplement ijms-22-05630-s001.zip/Hemloytic Peptides(seguence).xlsx, sheet "HD2" | column: Activity || Supplement ijms-22-05630-s001.zip/Hemloytic Peptides(seguence).xlsx, sheet "HD3" | column: Activity

[2] abbreviates: ACPs dataset D3 (supplement sheet "D3"), 1 = ACP, ref CancerPPD [45] and SATPdb.
Setting [3] is: ACPs dataset D4 (sheet "D4"), label 1 = ACP, ref CancerPPD / SATPdb.
Where [4] appears, read: ACPs dataset D5, sheet "D5", label 1 = ACP, ref CancerPPD [45] and SATPdb.
Setting [5] is: Hemolytic peptides dataset HD2, label 1 = hemolytic, 0 = non-hemolytic, ref Hemolytik/SATPdb.
The mark [6] stands for this setting: hemolytic peptides dataset HD3, 1 = hemolytic (positive set), 0 = non-hemolytic (negative set), labels taken from databases, ref Hemolytik/SATPdb.
Setting [7] is: ACPs dataset D3 (sheet "D3"), label 1 = ACP, ref CancerPPD/SATPdb.

Like-named read-outs stand apart in the source and are kept apart here.

As for ALKAALLAILKIVRVIKK [satpdb15928], in data set [1], the Activity is recorded as 0.
In the case of ALYLAIRRR [satpdb16531], the Activity in data set [1] is 0.
For the substance FFGAIAAALPHVISAIKNAL [satpdb28842], the Activity in data set [1] is 1.
Regarding FFGWLIKGAIHAGKAIHGLIHRRRH [satpdb28313], in data set [1], the Activity is 1.
Consider FFPIVGKRLYGLL [satpdb15392], for which the Activity in data set [1] is 0.
For FFPLLFGALSSHLPKLF [satpdb16485], in data set [1], the Activity is given as 1.
In the case of FFPLVLGALGSILPKIF [satpdb25475], the Activity in data set [1] is given as 1.
In the case of FIGAILPAIAGLVHGLINR [satpdb19442], the Activity in data set [1] is given as 1.
Regarding FIGALLRPALKLLAGK [satpdb27126], the Activity in data set [1] is given as 1.
As for FIGLLISAGKAIHDLIRRRH [satpdb26817], the Activity in data set [1] is recorded as 1.
With FIPLVSGLFSRLL [satpdb15094], the Activity in data set [1] is on record as 0.
In the case of FISGLIGGLMKAL [satpdb16102], the Activity in data set [1] is 0.
With FLGAIAAALPHVINAVTNAL [satpdb16106], in data set [1], the Activity was 1.
Consider FLGLLGSLL [satpdb15039], for which the Activity in data set [1] was 0.
As for FLPAALAGIGGILGKLF [satpdb24046], the Activity in data set [1] is 1.
As for FLPFLIPALTSLISSL [satpdb15275], in data set [1], the Activity is 0.
In the case of FLPLIGKILGTIL [satpdb15913], in data set [1], the Activity is on record as 0.
Turning to FLPLLFGALSTLLPKIF [satpdb23665], in data set [1], the Activity is recorded as 1.
As for FLPLVLGALSGILPKIL [satpdb22972], the Activity in data set [1] is 1.
Regarding FLPVILPVIGKLLSGIL [satpdb17809], the Activity in data set [1] is given as 1.
As to FLSAITSLLGKLL [satpdb15955], the Activity in data set [1] is on record as 0.
Consider FLSGIVGMLGKLF [satpdb21516], for which the Activity in data set [1] is 1.
With FVQWFSKFLGRIL [satpdb16211], the Activity in data set [1] was 1.
As for GALRGCWTKSYPPKPCK [satpdb24908], in data set [1], the Activity was 1.
For the substance GFGPAFHSVSNFAKKHKTA [satpdb16916], the Activity in data set [1] is given as 0.
As to GFIFHIIKGLFHAGKMIHGLV [satpdb15908], the Activity in data set [1] is reported as 0.
Take GFKDLLKGAAKALVKTVLF [satpdb25277]: in data set [1], the Activity is recorded as 1.
As to GFKRIVQRIKDFLRNLV [satpdb10735], the Activity in data set [1] is recorded as 0.
With GFMKYIGPLIPHAVKAISDLI [satpdb17997], in data set [1], the Activity was 1.
GFRKFHKFWA [satpdb14908]: in data set [1], the Activity was 0.
GIGGALLSAGKAALKGLAKVLV [satpdb22839]: in data set [1], the Activity is listed as 1.
As to “GIGGVLLGAGKATLKGLAKVLAEKYAN [satpdb26873]”, in data set [1], the Activity is reported as 1.
GILDAIKAFANALG [satpdb15517]: the Activity in data set [1] was 0.
For GKWMSLLKHILK [satpdb20336], in data set [1], the Activity is listed as 1.
Regarding GLFDIIKKIAESF [satpdb11488], in data set [1], the Activity is on record as 0.
As for GLFDIIKKVASVIGGL [satpdb15856], the Activity in data set [1] is given as 0.
Turning to GLFDIVKKIAGHIVSSI [satpdb13076], the Activity in data set [1] is recorded as 0.
As for GLGSLVGNALRIGAKLL [satpdb15217], the Activity in data set [1] was 0.
Regarding GLKDIFKAGLGSLVKNIAAHVAN [satpdb11475], the Activity in data set [1] was 0.
With GLLDFVTGVGKDIFAQLIKQI [satpdb25435], in data set [1], the Activity is reported as 1.
Consider GLLDIVKKVVGAFGSL [satpdb12368], for which, in data set [1], the Activity was 0.
As for GLLSFLPKVIGVIGHLIHPPS [satpdb15305], the Activity in data set [1] was 0.
With “GLPVCGETCVGGTCNTPGCTCSWPVCTRN [satpdb19932]”, the Activity in data set [1] is listed as 1.
Take GLVTGLLKTAGKLLGDLFGSLSG [satpdb20565]: the Activity in data set [1] was 1.
Turning to GLVTGLLKTAGKLLGDLFGSLTG [satpdb19701], the Activity in data set [1] is 1.
Take GLVTSLIKGAGKLLGGLFGSVTG [satpdb15873]: the Activity in data set [1] is listed as 0.
Turning to GLWQKIKNAAGDLASGIVEGIKS [satpdb17290], the Activity in data set [1] is on record as 0.
GMASKAGSVLGKLAKVAIGAL [satpdb16457]: in data set [1], the Activity is listed as 0.
Regarding GMWSKILGHLIR [satpdb20159], the Activity in data set [1] is 1.
“GRRRRSVQWCAVSQPEATKCFQWQRNMRKVRGPPVSCIKRDSPIQCIQA [satpdb10374]”: the Activity in data set [1] is 0.
For “GVIIDTLKGAAKTVAAELLRKAHCKLTNSC [satpdb16783]”, in data set [1], the Activity is reported as 1.
Take GVLDIFKDAAKQILAHAAEKQI [satpdb12665]: in data set [1], the Activity is 1.
Turning to GVLDILKNAAKNILAHAAEQI [satpdb26113], in data set [1], the Activity is recorded as 1.
Consider GVLSVIKNALPGIMRF [satpdb16950], for which, in data set [1], the Activity was 0.
Regarding GVVDILKGAGKDLLAHLVGKISEKV [satpdb27434], in data set [1], the Activity is recorded as 1.
As for GVVTDLLKTAGKLLGNLVGSLSG [satpdb26504], the Activity in data set [1] is given as 1.
With GVVTDLLNTAGGLLGNLVGSLSG [satpdb21886], the Activity in data set [1] is 1.
Turning to “GWLRKAAKSVGKFYYKHKYYIKAAWKIGRHAL [satpdb17212]”, the Activity in data set [1] was 0.
With IFGAILPLALGALKNLIK [satpdb27411], the Activity in data set [1] is 1.
IIGAIAAALPHVINAIKNTF [satpdb19948]: the Activity in data set [1] was 1.
On to IIGHLIKTALGMLGL [satpdb15972], for which the Activity in data set [1] is 0.
On to IIGPVLGLVGKPLESLLE [satpdb17226], for which the Activity in data set [1] is 0.
As for ILPILSLIGGLLGK [satpdb11856], the Activity in data set [1] was 0.
In the case of ILPWKWPWWPWRR [satpdb22480], the Activity in data set [1] was 1.
On to KAYSMPRCKYLFRAVLCWL [satpdb15879], for which, in data set [1], the Activity was 0.
As to KILRGVSKKIMRTFLRRILTGKK [satpdb23198], in data set [1], the Activity was 1.
In the case of KISKKIMRTFLRRILTGKK [satpdb19592], in data set [1], the Activity was 1.
“LALALKHALHKALLLAKHLAHKLALA [satpdb16273]”: the Activity in data set [1] was 0.
With LGPALITRKPLKGKP [satpdb17072], the Activity in data set [1] is reported as 0.
“LKLSPKTKDTLKKVLKGAIKGAIAIASMA [satpdb13200]”: in data set [1], the Activity is on record as 1.
On to LLDVLLE [satpdb11533], for which, in data set [1], the Activity was 0.
On to LLGMIPLAISAISALSKL [satpdb26571], for which the Activity in data set [1] is reported as 1.
Consider LLGMIPLAISAISSLSKL [satpdb20037], for which, in data set [1], the Activity is given as 1.
LLPIVGNLLNSLL [satpdb24565]: the Activity in data set [1] is on record as 1.
As for NFLGTLINLAKKIM [satpdb14927], the Activity in data set [1] is listed as 0.
On to NFLGTLVNLAKKIL [satpdb20410], for which, in data set [1], the Activity is recorded as 1.
For the substance NILNTIINLAKKIL [satpdb16074], in data set [1], the Activity was 0.
Take “RFRLPFRRPPIRIHPPPFYPPFRRFL [satpdb12266]”: the Activity in data set [1] is 1.
In the case of RILRGVSRRIMRRILTGRR [satpdb20239], the Activity in data set [1] is on record as 1.
In the case of “RRIPRPILLPWRPPRPIPRPQPQPIPRWL [satpdb15488]”, the Activity in data set [1] is on record as 0.
Take “RRRPRPPYLPRPRPPPFFPPRLPPRIPPGFPPRFPPRFP [satpdb15417]”: the Activity in data set [1] was 0.
Take SAPRGCWTKSYPPKPCK [satpdb28266]: the Activity in data set [1] is given as 1.
SLSRFLSFLKIVYPPAF [satpdb15130]: the Activity in data set [1] is listed as 0.
As for TKPTLLGLPLGAGPAAGPGKR [satpdb17447], in data set [1], the Activity was 0.
For the substance VDIHVWD*GV [satpdb19274], the Activity in data set [1] is 1.
In the case of VNSKKISPKSIKVSK [satpdb10612], the Activity in the data set with cancer cell lines (setting [2]) is recorded as 0; in the data set on cancer cell lines (setting [3]) it was 0; in the data set with cancer cell lines (setting [4]), 0; in the data set with erythrocytes (setting [5]), 1; in the data set with erythrocytes (setting [6]), 1.
On to VSWKKSLGKIIKVVK [satpdb13183], for which the Activity is given as 0 in the data set with cancer cell lines (setting [7]); 0 with cancer cell lines (setting [3]); 0 in the data set with cancer cell lines (setting [4]); 1 in the data set with erythrocytes (setting [5]); 1 with erythrocytes (setting [6]).
For WLKKLLKKLLK [satpdb12765], the Activity is listed as 0 with cancer cell lines (setting [7]), 0 in the data set with cancer cell lines (setting [3]), 0 in the data set with cancer cell lines (setting [4]) and 1 with erythrocytes.
Consider kklfkkILKYL [satpdb10342], for which the Activity in the data set with cancer cell lines (setting [2]), in the data set with cancer cell lines (setting [3]), with cancer cell lines (setting [4]), in the data set with erythrocytes (setting [5]) and in the data set with erythrocytes (setting [6]) was 0 in each case.
With yPVKLyPVKL [satpdb11316], the Activity was 0 with cancer cell lines (setting [2]); 0 in the data set on cancer cell lines (setting [3]); 0 in the data set with cancer cell lines (setting [4]); 1 in the data set on erythrocytes (setting [5]); 1 in the data set on erythrocytes (setting [6]).
